What was measured:
Assay type in all cases: in vivo
[1] = tested on: pigweed, redroot (Amaranthus retroflexus); experiment: Postemergence herbicidal activity in corn, redroot pigweed; conditions: corn test, visual rating after 21 d, probit analysis, dose to kill or control 80 percent
Protocol: (§1) Seeds of corn and the desired weed species were planted in Sun Gro MetroMix 360 planting mixture, which typically has a pH of 6.0 to 6.8 and an organic matter content of about 30 percent, in plastic pots with a surface area of 95 cm^2. When required to ensure good germination and healthy plants, a fungicide treatment and/or other chemical or physical treatment was applied. The plants were grown for 7-21 d in a greenhouse with an approximate 15-h photoperiod which was maintained at about 23-29° C. during the day and 22-28° C. during the night. Nutrients and water were added on a regular basis and supplemental lighting was provided with overhead metal halide 1000-Watt lamps as necessary. The corn plants were utilized for testing when they reached the second true leaf stage. The weed species were utilized at the first or second true leaf stage.
A weighed amount, determined by the highest rate to be tested, of each test compound was dissolved in 4 mL of a 97:3 v/v mixture of acetone and DMSO to obtain concentrated stock solutions. […] The concentrated stock solutions obtained were diluted with 20 mL of an aqueous mixture containing acetone, water, isopropyl alcohol, DMSO, Atplus 411F crop oil concentrate, and Triton X-155 surfactant in a 48.5:39:10:1.5:1.0:0.02 v/v ratio to obtain spray solutions containing the highest application rates. […]
(§2) The treated plants and control plants were placed in a greenhouse as described above and watered by sub-irrigation to prevent wash-off of the test compounds. After 21 d, the condition of the test plants as compared with that of the untreated plants was determined visually and scored on a scale of 0 to 100 percent where 0 corresponds to no injury and 100 corresponds to complete kill. […]

[2] = tested on: lambsquarters (Chenopodium album); experiment: Postemergence herbicidal activity in sugar beet, lambsquarters; parameters: unit not given here; conditions: sugar beet test, visual rating after 21 d, probit analysis, dose to kill or control 80 percent
Protocol: as §1, with “sugar beet” for “corn”, “MetroMix®” for “MetroMix”, “15-28” for “7-21”, “third or fourth” for “second”, “fourth” for “first or second”
(§3) A weighed amount, determined by the highest rate to be tested, of each test compound was dissolved in 4 mL of a 97:3 v/v mixture of acetone and DMSO to obtain concentrated stock solutions. […] The concentrated stock solutions obtained were diluted with 20 mL of an aqueous mixture containing acetone, water and Agri-Dex crop oil concentrate, in a 16.7:82.1:1.25 v/v ratio to obtain spray solutions containing the highest application rates. Additional application rates were obtained by serial dilution of 12 mL of the high rate solution into a solution containing 2 mL of 97:3 v/v mixture of acetone and DMSO and 10 mL of an aqueous mixture containing acetone, water and Agri-Dex crop oil concentrate, in a 16.7:82.1:1.25 v/v ratio to obtain ½×, ¼×, ⅛× and 1/16× rates of the high rate. Compound requirements are based upon a 12 mL application volume at a rate of 187 L/ha. Formulated compounds were applied to the plant material with an overhead Mandel track sprayer equipped with 8002E nozzles calibrated to deliver 187 L/ha over an application area of 0.503 m^2 at a spray height of 18 inches (43 cm) above the average plant canopy height. Control plants were sprayed in the same manner with the solvent blank.
(§4) The treated plants and control plants were placed in a greenhouse as described above and watered by sub-irrigation to prevent wash-off of the test compounds. After 21 d, the condition of the test plants as compared with that of the untreated plants was determined visually and scored on a scale of 0 to 100 percent where 0 corresponds to no injury and 100 corresponds to complete kill.
(§5) By applying the well-accepted probit analysis as described by J. Berkson in Journal of the American Statistical Society 1953, 48, 565, and by D. Finney in “Probit Analysis” Cambridge University Press (1952), the above data can be used to calculate GR20 and GR80 values, which are defined as growth reduction factors that correspond to the effective dose of herbicide required to kill or control 20 percent or 80 percent, respectively, of a target plant.

[3] = tested on: sugar beet (Beta vulgaris); experiment: Postemergence herbicidal activity in sugar beet, crop; parameters: unit not given here; conditions: visual rating after 21 d, probit analysis, dose to kill or control 20 percent
Protocol: as §1, with “sugar beet” for “corn”, “MetroMix®” for “MetroMix”, “15-28” for “7-21”, “third or fourth” for “second”, “fourth” for “first or second”
as §3, §4, §5

[4] = tested on: purple deadnettle (Lamium purpureum); experiment: Postemergence herbicidal activity in sugar beet, purple deadnettle; parameters: unit not given here; conditions: sugar beet test, visual rating after 21 d, probit analysis, dose to kill or control 80 percent
Protocol: as §1, with “sugar beet” for “corn”, “MetroMix®” for “MetroMix”, “15-28” for “7-21”, “third or fourth” for “second”, “fourth” for “first or second”
as §3, §2

Compound | AMARE GR80 [1] [g ai/ha] | CHEAL GR80 [2] | BEAVA GR20 [3] | LAMPU GR80 [4]
COc1c(Cl)ccc(-c2cc(N)c(Cl)c(C(=O)NOCC(C)C)n2)c1F [Compound 1, 4-amino-3-chloro-6-(4-chloro-2-fluoro-3-methoxyphenyl)-N-(2-methylpropoxy)picolinamide] | 14 | – | – | –
CONC(=O)c1nc(-c2ccc(Cl)c(OC)c2F)cc(N)c1Cl [Compound 2, 4-Amino-3-chloro-6-(4-chloro-2-fluoro-3-methoxyphenyl)-N-methoxypicolinamide] | <4 | 21.5 | >35 | <4.38

— patent US20130324412A1, “N-ALKOXYAMIDES OF 6-(SUBSTITUTED PHENYL)-4-AMINOPICOLINATES AND 2-(SUBSTITUTED PHENYL)-6-AMINO-4-PYRIMIDINECARBOXYLATES AND THEIR USE AS SELECTIVE HERBICIDES FOR CROPS” (DOW AGROSCIENCES LLC, priority 2009, published 2013)
